Assay results as given in PubChem BioAssay AID248 (DTP/NCI, 2004).
Several values for one entry are separate records, joined by “and”; a condition that tells them apart may be missing. Equal values may be shown once. Inconclusive results and toxic doses are left out.

System: L1210 leukemia ip in BDF1 mice, survival T/C
Experiment: NCI In Vivo Anticancer Drug Screen. Data for tumor model L1210 Leukemia (intraperitoneal) in B6D2F1 (BDF1) mice
Settings: endpoint: mean survival time, higher = longer survival
Outline: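 Mice bearing the transplanted tumor received compound or vehicle. Survival of the treated group was divided by that of the vehicle-treated control group to give the ratio.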

[1] = dose: 100.0 mg/kg/injection, schedule: Q04DX003 (ip), vehicle: Klucel (hydroxypropylcellulose) (HPC)
[2] = dose: 200.0 mg/kg/injection, schedule: Q04DX003 (ip), vehicle: Klucel (hydroxypropylcellulose) (HPC)
[3] = dose: 100.0 mg/kg/injection, schedule: Q01DX001 (ip), vehicle: saline
[4] = dose: 200.0 mg/kg/injection, schedule: Q01DX001 (ip), vehicle: saline
[5] = dose: 400.0 mg/kg/injection, schedule: Q01DX001 (ip), vehicle: saline
[6] = dose: 100.0 mg/kg/injection, schedule: Q01DX001 (ip), vehicle: Klucel (hydroxypropylcellulose) (HPC)
[7] = dose: 200.0 mg/kg/injection, schedule: Q01DX001 (ip), vehicle: Klucel (hydroxypropylcellulose) (HPC)
[8] = dose: 400.0 mg/kg/injection, schedule: Q01DX001 (ip), vehicle: Klucel (hydroxypropylcellulose) (HPC)

In the case of `CC(c1ccc(Br)cc1)N(C)C` (centres undefined), the T/C (dose: 10.0 mg/kg/injection, schedule: Q01DX001 (ip), vehicle: saline) is reported as 102 % of control, the T/C (dose: 20.0 mg/kg/injection, schedule: Q01DX001 (ip), vehicle: saline) is reported as 93 % of control and the T/C (dose: 40.0 mg/kg/injection, schedule: Q01DX001 (ip), vehicle: saline) is reported as 98 % of control. For the same compound, the T/C (dose: 80.0 mg/kg/injection, schedule: Q01DX001 (ip), vehicle: saline) was 98 % of control.
With `O=c1[nH]c(SCc2ccc([N+](=O)[O-])cc2)nc2ccccc12` the T/C [1] was 111 % of control, the T/C [2] was 102 % of control and the T/C (dose: 400.0 mg/kg/injection, schedule: Q04DX003 (ip), vehicle: Klucel (hydroxypropylcellulose) (HPC)) was 94 % of control.
In the case of `Cc1cc(C)c2c(SC(C)C)nc(N)nc2n1`, the T/C (dose: 100.0 mg/kg/injection, schedule: Q01DX Z (ip), vehicle: methylcellulose (MC)) is reported as 95 % of control and the T/C (dose: 200.0 mg/kg/injection, schedule: Q01DX Z (ip), vehicle: methylcellulose (MC)) is reported as 97 % of control.
In the case of `O=Cc1cc(=O)[nH]c(NC(=O)C(Cl)Cl)n1`, the T/C [3] is reported as 101 % of control, the T/C [4] is reported as 104 % of control and the T/C [5] is reported as 89 % of control.
For `O=C(NC(=O)c1ccc([N+](=O)[O-])cc1)OCCCl`, the T/C [6] was 92 % of control, the T/C [7] was 97 % of control and the T/C [8] was 105 % of control.
With `CNc1ccccc1C(=O)N/N=C/c1cccc([N+](=O)[O-])c1` the T/C (dose: 100.0 mg/kg/injection, schedule: Q04DX002 (ip), vehicle: Klucel (hydroxypropylcellulose) (HPC)) was 93 % of control, the T/C (dose: 200.0 mg/kg/injection, schedule: Q04DX002 (ip), vehicle: Klucel (hydroxypropylcellulose) (HPC)) was 96 % of control and the T/C (dose: 400.0 mg/kg/injection, schedule: Q04DX002 (ip), vehicle: Klucel (hydroxypropylcellulose) (HPC)) was 86 % of control.
For `Cc1cc(C(C)(C)CC(C)(C)C)cc(O)c1O`, the T/C (dose: 100.0 mg/kg/injection, schedule: Q01DX009 (ip), vehicle: other) was 94 % of control, the T/C (dose: 100.0 mg/kg/injection, schedule: Q04DX003 (ip), vehicle: other) was 96 % of control and the T/C (dose: 200.0 mg/kg/injection, schedule: Q01DX009 (ip), vehicle: other) was 94 % of control. For the same compound, the T/C (dose: 200.0 mg/kg/injection, schedule: Q04DX003 (ip), vehicle: other) was 93 % of control, the T/C (dose: 400.0 mg/kg/injection, schedule: Q01DX009 (ip), vehicle: other) was 94 % of control and the T/C (dose: 400.0 mg/kg/injection, schedule: Q04DX003 (ip), vehicle: other) was 91 % of control.
In the case of `C=CCNC(=S)OCC`, the T/C (dose: 100.0 mg/kg/injection, schedule: Q04DX002 (ip), vehicle: saline with Tween-80) is reported as 100 % of control, the T/C (dose: 200.0 mg/kg/injection, schedule: Q04DX002 (ip), vehicle: saline with Tween-80) is reported as 97 % of control and the T/C (dose: 400.0 mg/kg/injection, schedule: Q04DX002 (ip), vehicle: saline with Tween-80) is reported as 103 % of control.
For `CC12CC3(C)CC(C)(C1)CC(NC(=O)N(CCF)N=O)(C2)C3`, the T/C (dose: 30.0 mg/kg/injection, schedule: Q01DX001 (ip), vehicle: other) was 113 % of control, the T/C (dose: 40.0 mg/kg/injection, schedule: Q01DX001 (ip), vehicle: other) was 117 % of control and the T/C (dose: 187.0 mg/kg/injection, schedule: Q01DX001 (ip), vehicle: other) was 151 % of control. For the same compound, the T/C (dose: 375.0 mg/kg/injection, schedule: Q01DX001 (ip), vehicle: other) was 87 % of control.
`CC1C(=O)C(Br)C2CC(O)CCC2(C)C1C` (centres undefined) was tested, and the T/C (dose: 75.0 mg/kg/injection, schedule: Q01DX001 (ip), vehicle: saline) was 100 % of control, the T/C (dose: 150.0 mg/kg/injection, schedule: Q01DX001 (ip), vehicle: saline) was 94 % of control and the T/C (dose: 300.0 mg/kg/injection, schedule: Q01DX001 (ip), vehicle: saline) was 89 % of control.
With `CC1(C)CC(OP(=O)(CCl)OC2CC(C)(C)N(O)C(C)(C)C2)CC(C)(C)N1O` the T/C (dose: 100.0 mg/kg/injection, schedule: Q04DX002 (ip), vehicle: water) was 97 % of control and the T/C (dose: 200.0 mg/kg/injection, schedule: Q04DX002 (ip), vehicle: water) was 97 % of control.
For `c1ccc2cc(C3OCC4(CCCCC4)CO3)ccc2c1`, the T/C [6] was 96 % of control, the T/C [7] was 100 % of control and the T/C [8] was 100 % of control.
`c1ccc2c(c1)[nH]c1c2c[n+]2c3c(cccc13)CCC2` was tested, and the T/C (dose: 3.13 mg/kg/injection, schedule: Q01DX009 (ip), vehicle: saline) was 105 % of control, the T/C (dose: 6.25 mg/kg/injection, schedule: Q01DX009 (ip), vehicle: saline) was 105 % of control and the T/C (dose: 12.5 mg/kg/injection, schedule: Q01DX009 (ip), vehicle: saline) was 105 % of control.
For `O=C(Nc1ccccc1C(=O)NC1CCCC1)NC1CCCC1`, the T/C [1] was 89 % of control and the T/C [2] was 94 % of control.
For `BrC1(Br)C2CCCCC21` (centres undefined), the T/C (dose: 100.0 mg/kg/injection, schedule: Q04DX003 (ip), vehicle: acetone) was 90 % of control and the T/C (dose: 200.0 mg/kg/injection, schedule: Q04DX003 (ip), vehicle: acetone) was 98 % of control and 90 % of control.
With `O=P(OCCCCl)(OCCCCl)C(Cl)(Cl)Cl` the T/C [3] was 102 % of control, the T/C [4] was 101 % of control and the T/C [5] was 101 % of control.
